# Data taken from the supplement of paper PMC7600603.
# Key:
# DLD1 NRF2-GOF [1] = conditions: 72 h; CellTiter-Glo viability
# Procedure, shortened: (§1)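 Cells grown in DMEM with 10% FBS were isogenic DLD1 colorectal cancer lines, NRF2 wild-type or CRISPR gain-of-function. In 384-well plates they received library compounds at 5 concentrations over a 10,000-fold range for 72 h before CellTiter-Glo readout on a Pherastar FS reader, normalised to vehicle wells and 100-μM positive-control wells. Dose-response fits used a four-parameter logistic model, from which EC50 and drug sensitivity score, a normalised area under the curve, were obtained.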
# DLD1 NRF2-WT [2] = conditions: 72 h; CellTiter-Glo viability
# Procedure, shortened: as §1
# DLD1 NRF2-GOF [3] = assay: TC50 cytotoxicity; higher = less toxic; conditions: 72 h; CellTox Green cytotoxicity
# Procedure, shortened: (§2)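 Isogenic DLD1 colorectal cancer cells differing in NRF2 status, one line edited by CRISPR, were cultured in DMEM with 10% FBS and treated in 384-well plates with library compounds at 5 concentrations spanning a 10,000-fold range. Plates were read after 72 h with CellTox Green on a Pherastar FS reader, and signals were normalised to vehicle wells and 100-μM positive-control wells. Cytotoxicity was summarised as TC50 and as a drug sensitivity score, a normalised area under the curve, both from logistic dose-response fits.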
# DLD1 NRF2-WT [4] = assay: TC50 cytotoxicity; higher = less toxic; conditions: 72 h; CellTox Green cytotoxicity
# Procedure, shortened: as §2
# DLD1 NRF2-GOF [5] = assay: drug sensitivity score (DSS) cytotoxicity (DSS score); higher = more toxic; extreme values may be limits of the assay; conditions: 72 h; CellTox Green cytotoxicity
# Procedure, shortened: as §2
# DLD1 NRF2-WT [6] = assay: as above; conditions: 72 h; CellTox Green cytotoxicity
# Procedure, shortened: as §2
# DLD1 NRF2-GOF [7] = assay: drug sensitivity score (DSS) viability (DSS score); higher = more sensitive; extreme values may be limits of the assay; conditions: 72 h; CellTiter-Glo viability
# Procedure, shortened: as §1
# DLD1 NRF2-WT [8] = assay: as above; conditions: 72 h; CellTiter-Glo viability
# Procedure, shortened: as §1
Structure (SMILES),EC50 viability (DLD1 NRF2-GOF [1]) [µM],EC50 viability (DLD1 NRF2-WT [2]) [µM],TC50 cytotoxicity (DLD1 NRF2-GOF [3]) [µM],TC50 cytotoxicity (DLD1 NRF2-WT [4]) [µM],drug sensitivity score (DLD1 NRF2-GOF [5]),drug sensitivity score (DLD1 NRF2-WT [6]),drug sensitivity score (DLD1 NRF2-GOF [7]),drug sensitivity score (DLD1 NRF2-WT [8])
FC(F)(F)c1ccc(CNc2ccc(Cc3c[nH]c4ncc(Cl)cc34)cn2)cn1 [Pexidartinib],> 10,> 10,> 10,> 10,0,0,0.9,0
COc1cccc2c1c(O)c(C(=O)N(C)c1ccc(C(F)(F)F)cc1)c(=O)n2C [Tasquinimod],> 10,> 10,> 10,> 10,0,0,1.2,1.8
CC(=O)[C@]1(O)Cc2c(O)c3c(c(O)c2[C@@H](O[C@H]2C[C@H](N)[C@H](O)[C@H](C)O2)C1)C(=O)c1ccccc1C3=O [Idarubicin],0.0969,0.0452,0.219,0.15,2.4,4.8,10,14.2
COc1cc(Br)c(Nc2nc(-c3c(C)nc4ncccn34)cs2)c(Br)c1 [PTC-209],1.44,0.464,> 10,> 10,0,0,6.2,10.8
Nc1nc(F)nc2c1ncn2[C@@H]1O[C@H](CO)[C@@H](O)[C@@H]1O [Fludarabine],> 10,> 10,> 10,> 10,0,0,0,0.1
COc1cc(OC)cc(N(CCNC(C)C)c2ccc3ncc(-c4cnn(C)c4)nc3c2)c1 [Erdafitinib],0.133,0.0421,> 1,> 1,0,0,6,5.9
COCCOc1cnc2ccn([C@H](C)c3nnc4c(F)cc(-c5cnn(C)c5)cn34)c(=O)c2c1 [AMG-337],0.27,0.543,> 10,> 10,0,0,6.6,4.2
C=CC(=O)Nc1cc(Nc2nccc(-c3cn(C)c4ccccc34)n2)c(OC)cc1N(C)CCN(C)C [Osimertinib],0.402,0.424,> 2.5,> 2.5,0,0.7,4.7,6.6
CCOc1cc2ncc(C#N)c(Nc3ccc(OCc4ccccn4)c(Cl)c3)c2cc1NC(=O)/C=C/CN(C)C [Neratinib],0.305,0.102,> 1,> 1,0,0,2.2,5.7
COCC1(CO)C(=O)C2CCN1CC2 (stereo unspecified) [APR-246],> 10,> 10,> 10,> 10,0,0,0,4.5
Cc1nc(=O)c2cc(CN(C)c3ccc(C(=O)N[C@@H](CCC(=O)O)C(=O)O)s3)ccc2[nH]1 [Raltitrexed],0.0083,0.0147,> 1,> 1,0,0,18,16
CCn1cc(-c2ccnc3[nH]c(-c4cccc(CN(C)C)c4)cc23)c(-c2ccc(NC(=O)N(C)C)cc2)n1,0.0452,0.172,> 1,> 1,1.6,0,4.4,2.8
CC(C)(C)C[C@@H]1N[C@@H](C(=O)N[C@H]2CC[C@H](O)CC2)[C@H](c2cccc(Cl)c2F)[C@]12C(=O)Nc1cc(Cl)ccc12,3.61,1.93,> 10,> 10,0,0,1.5,4.4
NC1(c2ccc(-c3nc4ccn5c(=O)[nH]nc5c4cc3-c3ccccc3)cc2)CCC1 [MK-2206],> 1,0.0522,> 1,> 1,0,0,0.7,4.3
Cc1cc([C@@H](C)Nc2ccccc2C(=O)O)c2nc(N3CCOCC3)cc(=O)n2c1 [AZD-6482],> 2.5,> 2.5,> 2.5,> 2.5,0,0,0,0.1
CC(C)c1cc(-c2n[nH]c(=O)n2-c2ccc3c(ccn3C)c2)c(O)cc1O [Ganetespib],0.0228,0.0266,> 1,> 1,0,0,18.4,17.9
COc1cc2nccc(Oc3ccc(NC(=O)NC4CC4)c(Cl)c3)c2cc1C(N)=O [Lenvatinib],> 2.5,> 2.5,> 2.5,> 2.5,0,0,0,0.1
CO[C@@H](C)Cn1c(=O)n(C)c2cnc3ccc(-c4cncc(C(C)(C)O)c4)cc3c21,0.195,0.171,> 2.5,> 2.5,0,0,9.5,10.5
CC(C)(C)Cn1c(N)nc2ccc(-c3[nH]c(C(C)(C)C)nc3-c3ccc(F)cc3)nc21 [Ralimetinib],2.83,1.94,> 10,> 10,0,0,2.9,4.3
CN[C@@H](C)C(=O)N[C@H]1CN(C(=O)CC(C)C)CC[C@H]2CC[C@@H](C(=O)NC(c3ccccc3)c3ccccc3)N2C1=O [AT-406],0.885,> 10,> 10,> 10,0,0,2.6,0
CCCCCCCCc1ccc(CCC(N)(CO)CO)cc1 [Fingolimod],2.58,3.22,2.73,2.42,6.4,5.6,6.7,5.5

Structure (SMILES),EC50 viability (DLD1 NRF2-GOF [1]) [µM],EC50 viability (DLD1 NRF2-WT [2]) [µM],TC50 cytotoxicity (DLD1 NRF2-GOF [3]) [µM],TC50 cytotoxicity (DLD1 NRF2-WT [4]) [µM],drug sensitivity score (DLD1 NRF2-GOF [5]),drug sensitivity score (DLD1 NRF2-WT [6]),drug sensitivity score (DLD1 NRF2-GOF [7]),drug sensitivity score (DLD1 NRF2-WT [8])
C=C(c1ccc(C(=O)O)cc1)c1cc2c(cc1C)C(C)(C)CCC2(C)C [Bexarotene],1.03,> 10,> 10,> 10,0,0,3.9,0
CN1CC[C@H](c2c(O)cc(O)c3c(=O)cc(-c4ccccc4Cl)oc23)[C@H](O)C1 [Alvocidib],0.266,0.156,> 10,> 10,0,0.8,16.2,20.1
Cc1cn(-c2cc(NC(=O)c3ccc(C)c(Nc4nccc(-c5cnccn5)n4)c3)cc(C(F)(F)F)c2)cn1 [Radotinib],> 10,> 10,> 10,> 10,0.3,0,0.4,0
COc1ncc(-c2ccc3nccc(-c4ccnnc4)c3c2)cc1NS(=O)(=O)c1ccc(F)cc1F [Omipalisib],0.0253,0.0071,> 1,> 1,0,0,12.6,18.7
CN1CCC(COc2cnc(-c3cccc(Cn4nc(-c5cccc(C#N)c5)ccc4=O)c3)nc2)CC1 [Tepotinib],> 1,> 1,> 1,> 1,0,0,0,0
O=C1NC(=O)[C@@H](c2cn3c4c(cccc24)CCC3)[C@@H]1c1c[nH]c2ccccc12 [Tivantinib],0.242,0.164,> 1,> 1,0.9,1.4,5,6.7
COc1cc(N2CCC(N3CCN(C)CC3)CC2)ccc1Nc1ncc(Cl)c(Nc2ccccc2P(C)(C)=O)n1 [Brigatinib],0.0551,0.399,> 1,> 1,0,0,3.4,1.1
COc1cc2nccc(Oc3ccc(NC(=O)Nc4cc(C)on4)c(Cl)c3)c2cc1OC [Tivozanib],3.59,3.04,2.64,2.92,4.5,2.3,2.3,3.1
CC(C)(C)c1cnc(CSc2cnc(NC(=O)C3CCNCC3)s2)o1 [SNS-032],0.223,0.0984,> 10,> 10,0,0.8,17.5,23.1
Cc1cccc(-c2[nH]c(CNc3ccccc3F)nc2-c2ccc3ncnn3c2)n1 [TEW-7197],> 2.5,> 2.5,> 2.5,> 2.5,0,0,1.7,0
CC1=C(/C=C/C(C)=C/C=C/C(C)=C/C(=O)O)C(C)(C)CCC1 [Tretinoin],0.0965,0.001,> 10,> 10,0,0,12.1,17.7
CCN1CCN(Cc2ccc(Nc3ncc(F)c(-c4cc(F)c5nc(C)n(C(C)C)c5c4)n3)nc2)CC1 [Abemaciclib],0.134,0.0266,> 2.5,> 2.5,0,0,6.6,11.5
Clc1ccc(C(c2ccccc2Cl)C(Cl)Cl)cc1 (stereo unspecified) [Mitotane],> 10,> 10,> 10,> 10,0,0,1.8,0
Cn1c(=O)n(-c2ccc(C(C)(C)C#N)cc2)c2c3cc(-c4cnc5ccccc5c4)ccc3ncc21 [Dactolisib],0.0261,0.0132,> 1,> 1,0,0,9.8,13.9
CC1(COc2ccc3c(c2)ncn3-c2ccc3cccc(N4CCC(N)CC4)c3n2)COC1 [Crenolanib],1.46,1.03,2.89,2.65,6.1,4.3,9.3,10.9
FC(F)c1nc2ccccc2n1-c1nc(N2CCOCC2)nc(N2CCOCC2)n1 [ZSTK474],0.179,0.12,> 10,> 10,0,0,6.2,11.4
C/C(=C\c1csc(C)n1)[C@@H]1C[C@@H]2O[C@]2(C)CCC[C@H](C)[C@H](O)[C@@H](C)C(=O)C(C)(C)[C@@H](O)CC(=O)N1 [Ixabepilone],0.317,0.407,> 1,0.201,0.5,2.4,4.2,3.5
Cc1ccc(C(=O)Nc2cccc(C(F)(F)F)c2)cc1Nc1nc(-c2cccnc2)nc2c1cnn2C [NVP-BHG712],> 10,> 10,> 10,> 10,0,0,0.9,2.2
CNC(=O)c1nn(C)c2c1C(C)(C)Cc1cnc(Nc3ccc(N4CCN(C)CC4)cc3)nc1-2 [Milciclib],1.19,0.926,> 10,> 10,0,0.5,8.5,10.8
CN1CCN(c2nc(C3=C(c4c[nH]c5ccccc45)C(=O)NC3=O)c3ccccc3n2)CC1 [Sotrastaurin],> 10,> 10,> 10,> 10,0,0,0,1.2
CCCCc1nc2cc(/C=C/C(=O)NO)ccc2n1CCN(CC)CC [Pracinostat],0.929,0.795,> 10,1.48,1.6,4,9.1,11.9
